From ChEMBL document CHEMBL5244254, “Potential treatment methods targeting 2019-nCoV infection” (Eur J Med Chem, 2020)
≈ marks a conversion by molar mass, not a printed value.

Tests used:
SARS-CoV-2 [1] = experiment: Antiviral activity against Severe acute respiratory syndrome coronavirus 2 incubated for 48 hrs by TCID50 assay; type: functional, organism-based; details: Severe acute respiratory syndrome coronavirus 2, 48 h
[2] = Inhibition of Severe acute respiratory syndrome coronavirus CYP3A4; type: ADME, Severe acute respiratory syndrome-related coronavirus
SARS-CoV-2 [3] = experiment: Antiviral activity against Severe acute respiratory syndrome coronavirus 2 infected in African green monkey Vero cells incubated for 24 to 48 hrs; type: functional, organism-based; details: Severe acute respiratory syndrome coronavirus 2, Vero
[4] = Selectivity ratio of CC50 for African green monkey Vero E6 cells to EC50 for Severe acute respiratory syndrome coronavirus […]; type: toxicity, Vero C1008; details: read-out: Ratio CC50/EC50
[5] = Cytotoxicity against African green monkey Vero E6 cells assessed as cell growth inhibition incubated for 24 hrs by CCK8 assay; type: toxicity, cell-based, Vero C1008; details: chlorocebus sabaeus
[6] = Selectivity ratio of CC50 for African green monkey Vero E6 cells to EC50 for Severe acute respiratory syndrome coronavirus infected in African green monkey Vero E6 cells; type: toxicity, Vero C1008; details: read-out: Ratio CC50/EC50
SARS-CoV [7] = experiment: Antiviral activity against Severe acute respiratory syndrome coronavirus infected in African green monkey Vero E6 cells; type: functional, organism-based; details: Severe acute respiratory syndrome-related coronavirus, Vero C1008
[8] = Cytotoxicity against African green monkey Vero E6 cells assessed as cell growth inhibition incubated for 48 hrs by CCK8 assay; type: toxicity, cell-based, Vero C1008; details: chlorocebus sabaeus
SARS-CoV [9] = experiment: Antiviral activity against Severe acute respiratory syndrome coronavirus; type: functional, organism-based; details: Severe acute respiratory syndrome-related coronavirus
[10] = Inhibition of Severe acute respiratory syndrome coronavirus 3CL protease; parameters: species or system Severe acute respiratory syndrome-related coronavirus
West Nile virus [11] = experiment: Antiviral activity against West Nile virus 13-104 infected in african green monkey Vero cells; type: functional, organism-based; details: 13-104, Vero
West Nile virus [12] = experiment: Antiviral activity against West Nile virus Eg101 infected in african green monkey Vero cells; type: functional, organism-based
[13] = tested on: Tick-borne encephalitis virus; experiment: Antiviral activity against Tick-borne encephalitis virus Hypr infected in african green monkey Vero cells; type: functional, organism-based
Zika virus [14] = experiment: Antiviral activity against Zika virus Paraiba-01 infected in african green monkey Vero cells; type: functional, organism-based; details: Paraiba-01, Vero
Zika virus [15] = experiment: Antiviral activity against Zika virus MR-766 infected in african green monkey Vero cells; type: functional, organism-based; details: MR-766, Vero
Ebolavirus = experiment: Antiviral activity against Ebolavirus infected in African green monkey Vero E6 cells; type: functional, organism-based; details: Orthoebolavirus, Vero C1008
SARS-CoV-2 [16] = experiment: Antiviral activity against Severe acute respiratory syndrome coronavirus 2; type: functional, organism-based
[17] = Cytotoxicity against African green monkey Vero E6 cells assessed as cell growth inhibition incubated for 48 hrs; type: toxicity, cell-based, Vero C1008; details: chlorocebus sabaeus

With Cc1cccc(C)c1OCC(=O)N[C@@H](Cc1ccccc1)[C@@H](O)C[C@H](Cc1ccccc1)NC(=O)[C@H](C(C)C)N1CCCNC1=O [LOPINAVIR] the EC50 (SARS-CoV-2 [1]) was 26.1 µM.

For CC(C)c1nc(CN(C)C(=O)N[C@H](C(=O)N[C@@H](Cc2ccccc2)C[C@H](O)[C@H](Cc2ccccc2)NC(=O)OCc2cncs2)C(C)C)cs1 [RITONAVIR], the EC50 [2] was over 100 µM.

CCN(CCO)CCCC(C)Nc1ccnc2cc(Cl)ccc12 (configuration not stated) [HYDROXYCHLOROQUINE] gave an EC50 (SARS-CoV-2 [3]) of 720 nM.

O=C[C@H](C[C@@H]1CCNC1=O)NC(=O)[C@H](Cc1cccc(F)c1)NC(=O)c1cc2ccccc2[nH]1 showed a selectivity ratio [4] of over 139 and a CC50 at 24 h [5] of over 100 µM.

For CCN(CC)CCCC(C)Nc1ccnc2cc(Cl)ccc12 (configuration not stated) [CHLOROQUINE], the selectivity ratio [6] was over 88.5, the EC50 (SARS-CoV [7]) was 1130 nM and the CC50 at 48 h [8] was over 100 µM.

In the case of NC(=O)c1ncn([C@@H]2O[C@H](CO)[C@@H](O)[C@H]2O)n1 [RIBAVIRIN], the EC50 (SARS-CoV [9]) is reported as over 100 µM.

Compound Cc1cc(C(=O)N[C@@H](C)C(=O)N[C@H](C(=O)N[C@@H](CC(C)C)C(=O)N[C@H](/C=C/C(=O)OCc2ccccc2)C[C@@H]2CCNC2=O)C(C)C)no1 has an EC50 [10] of 16.8 µM.

CCOC(=O)c1c(CSc2ccccc2)n(C)c2cc(Br)c(O)c(CN(C)C)c12 [UMIFENOVIR] showed an EC50 (West Nile virus [11]) of 10.6 µM, an EC50 (West Nile virus [12]) of 10.6 µM and an EC50 [13] of 10.6 µM. The EC50 (Zika virus [14]) was 10.6 µM and the EC50 (Zika virus [15]) was 10.6 µM.

CC(C)(C)OC(=O)Nc1cccn([C@@H](CC2CC2)C(=O)N[C@H](CC(=O)NCc2ccccc2)C[C@@H]2CCNC2=O)c1=O gave an EC50 [10] of 4 µM.

Compound NC(=O)c1nc(F)cnc1O has a selectivity ratio [6] of over 6.46, an EC50 (Ebolavirus) of 10.5 µg/mL (≈ 66.8 µM) and a CC50 at 48 h [8] of over 400 µM.

O=C[C@H](C[C@@H]1CCNC1=O)NC(=O)[C@H](CC1CCCCC1)NC(=O)c1cc2ccccc2[nH]1 showed a CC50 at 24 h [5] of over 100 µM.

Compound CCOC(=O)C1=C[C@@H](OC(CC)CC)[C@H](NC(C)=O)[C@@H](N)C1 [OSELTAMIVIR] has an EC50 (SARS-CoV-2 [16]) of over 100 µM and a CC50 at 48 h [17] of over 100 µM.
